From PubChem BioAssay AID248 (DTP/NCI, 2004)
Several values for one entry are separate records, joined by “and”; a condition that tells them apart may be missing. Equal values may be shown once. Toxic doses and inconclusive results are not listed. Rule as the data show it: active = T/C of 150% or more; inactive = T/C below 125%.

Tested on: L1210 leukemia ip in BDF1 mice, survival T/C
Assay: NCI In Vivo Anticancer Drug Screen. Data for tumor model L1210 Leukemia (intraperitoneal) in B6D2F1 (BDF1) mice
Settings: endpoint: mean survival time, higher = longer survival
Method in brief: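 Antitumor effect is assessed in tumor-bearing animals. Survival in the compound arm is compared with a vehicle-dosed control arm and expressed as their quotient.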

[1] = dose: 100.0 mg/kg/injection, schedule: Q04DX002 (ip), vehicle: saline with Tween-80
[2] = dose: 200.0 mg/kg/injection, schedule: Q04DX002 (ip), vehicle: saline with Tween-80
[3] = dose: 100.0 mg/kg/injection, schedule: Q01DX001 (ip), vehicle: saline
[4] = dose: 100.0 mg/kg/injection, schedule: Q04DX003 (ip), vehicle: saline
[5] = dose: 200.0 mg/kg/injection, schedule: Q01DX001 (ip), vehicle: saline
[6] = dose: 200.0 mg/kg/injection, schedule: Q04DX003 (ip), vehicle: saline
[7] = dose: 400.0 mg/kg/injection, schedule: Q01DX001 (ip), vehicle: saline
[8] = dose: 400.0 mg/kg/injection, schedule: Q04DX003 (ip), vehicle: saline
[9] = dose: 100.0 mg/kg/injection, schedule: Q01DX009 (ip), vehicle: saline with Tween-80
[10] = dose: 200.0 mg/kg/injection, schedule: Q01DX009 (ip), vehicle: saline with Tween-80
[11] = dose: 50.0 mg/kg/injection, schedule: Q01DX001 (ip), vehicle: saline
[12] = dose: 50.0 mg/kg/injection, schedule: Q04DX002 (ip), vehicle: Klucel (hydroxypropylcellulose) (HPC)
[13] = dose: 100.0 mg/kg/injection, schedule: Q04DX002 (ip), vehicle: Klucel (hydroxypropylcellulose) (HPC)
[14] = dose: 200.0 mg/kg/injection, schedule: Q04DX002 (ip), vehicle: Klucel (hydroxypropylcellulose) (HPC)

Measured: T/C

C#C/C(CCC)=N\Nc1ccc([N+](=O)[O-])cc1[N+](=O)[O-]
inactive: dose: 50.0 mg/kg/injection, schedule: Q04DX002 (ip), vehicle: saline with Tween-80 88 % of control | [1] 94 % of control | [2] 88 % of control

CC(NC(=O)NCCCl)c1ccccc1 (stereo unspecified)
inactive: dose: 25.0 mg/kg/injection, schedule: Q04DX003 (ip), vehicle: saline with Tween-80 100 % of control | dose: 50.0 mg/kg/injection, schedule: Q04DX003 (ip), vehicle: saline with Tween-80 90 % of control | dose: 100.0 mg/kg/injection, schedule: Q04DX003 (ip), vehicle: saline with Tween-80 100 % of control and 90 % of control and 94 % of control | dose: 200.0 mg/kg/injection, schedule: Q04DX003 (ip), vehicle: saline with Tween-80 102 % of control

CS(=O)(=O)Oc1c(Cl)c(Cl)c(OS(C)(=O)=O)c(Cl)c1Cl
inactive: dose: 100.0 mg/kg/injection, schedule: Q01DX001 (ip), vehicle: carboxymethylcellulose (CMC) 101 % of control | dose: 200.0 mg/kg/injection, schedule: Q01DX001 (ip), vehicle: carboxymethylcellulose (CMC) 92 % of control | dose: 400.0 mg/kg/injection, schedule: Q01DX001 (ip), vehicle: carboxymethylcellulose (CMC) 98 % of control

O=[N+]([O-])c1ccc(O)c(I)c1
inactive: [3] 97 % of control | [4] 100 % of control | [5] 98 % of control | [6] 105 % of control | [7] 95 % of control | [8] 102 % of control

CCOC(=O)c1nc(NC)sc1N
inactive: dose: 12.5 mg/kg/injection, schedule: Q01DX009 (ip), vehicle: saline 98 % of control | dose: 25.0 mg/kg/injection, schedule: Q01DX009 (ip), vehicle: saline 104 % of control | dose: 50.0 mg/kg/injection, schedule: Q01DX009 (ip), vehicle: saline 97 % of control and 98 % of control | [4] 102 % of control | [6] 100 % of control

O=C1C2C3CCC(CC3)C2C(O)C2C3CCC(C3)C12 (stereo unspecified)
inactive: dose: 50.0 mg/kg/injection, schedule: Q01DX009 (ip), vehicle: saline with Tween-80 93 % of control | [9] 96 % of control | [10] 93 % of control

Cn1c(=O)c2[nH]c(C3CCCC3)nc2n(C)c1=O
inactive: [11] 96 % of control | [3] 96 % of control | [5] 96 % of control

CCOC(CS(=O)(=O)CC(N)=O)OCC
inactive: [9] 97 % of control | [10] 95 % of control | dose: 400.0 mg/kg/injection, schedule: Q01DX009 (ip), vehicle: saline with Tween-80 92 % of control

Cc1ccc(OS(=O)(=O)C2CC2c2ccccc2)cc1 (stereo unspecified)
inactive: [3] 92 % of control | [4] 102 % of control | [5] 97 % of control | [6] 98 % of control | [7] 98 % of control | [8] 94 % of control

OCCOCCN1CCN(CC/C=C2\c3ccccc3Sc3ccc(C(F)(F)F)cc32)CC1
inactive: dose: 1.56 mg/kg/injection, schedule: Q01DX009 (ip), vehicle: saline 104 % of control | dose: 1.56 mg/kg/injection, schedule: Q04DX003 (ip), vehicle: saline 100 % of control | dose: 2.5 mg/kg/injection, schedule: Q01DX009 (ip), vehicle: saline 98 % of control | dose: 3.12 mg/kg/injection, schedule: Q01DX009 (ip), vehicle: saline 111 % of control | dose: 3.12 mg/kg/injection, schedule: Q04DX003 (ip), vehicle: saline 94 % of control | dose: 5.0 mg/kg/injection, schedule: Q01DX009 (ip), vehicle: saline 108 % of control | dose: 6.25 mg/kg/injection, schedule: Q01DX009 (ip), vehicle: saline 106 % of control | dose: 6.25 mg/kg/injection, schedule: Q04DX003 (ip), vehicle: saline 101 % of control | dose: 6.9 mg/kg/injection, schedule: Q01DX015 (ip), vehicle: saline 115 % of control | dose: 8.0 mg/kg/injection, schedule: Q04DX003 (ip), vehicle: saline with Tween-80 116 % of control | dose: 9.2 mg/kg/injection, schedule: Q01DX009 (ip), vehicle: saline 103 % of control | dose: 10.0 mg/kg/injection, schedule: Q01DX009 (ip), vehicle: saline 117 % of control | dose: 10.3 mg/kg/injection, schedule: Q01DX015 (ip), vehicle: saline 105 % of control | dose: 14.0 mg/kg/injection, schedule: Q01DX009 (ip), vehicle: saline 117 % of control | dose: 20.0 mg/kg/injection, schedule: Q01DX009 (ip), vehicle: saline 117 % of control | dose: 21.0 mg/kg/injection, schedule: Q01DX009 (ip), vehicle: saline 88 % of control | dose: 25.0 mg/kg/injection, schedule: Q01DX001 (ip), vehicle: saline 116 % of control | dose: 40.0 mg/kg/injection, schedule: Q01DX009 (ip), vehicle: saline 96 % of control | [11] 105 % of control and 114 % of control | [3] 108 % of control | [4] 123 % of control

CC(CS(=O)(=O)O)N1CCN(CCO)CC1 (stereo unspecified)
inactive: dose: 100.0 mg/kg/injection, schedule: Q01DX009 (ip), vehicle: saline 101 % of control | [4] 108 % of control | dose: 200.0 mg/kg/injection, schedule: Q01DX009 (ip), vehicle: saline 96 % of control | [6] 103 % of control | dose: 400.0 mg/kg/injection, schedule: Q01DX009 (ip), vehicle: saline 96 % of control | [8] 94 % of control

O=C(CNC(=O)c1ccc(Cl)cc1)NO
inactive: dose: 100.0 mg/kg/injection, schedule: Q01DX001 (ip), vehicle: Klucel (hydroxypropylcellulose) (HPC) 96 % of control | dose: 200.0 mg/kg/injection, schedule: Q01DX001 (ip), vehicle: Klucel (hydroxypropylcellulose) (HPC) 102 % of control | dose: 400.0 mg/kg/injection, schedule: Q01DX001 (ip), vehicle: Klucel (hydroxypropylcellulose) (HPC) 96 % of control

O=C1Cc2ccccc2N1C(=O)c1ccccc1
inactive: [12] 97 % of control | [13] 101 % of control | [14] 90 % of control

CC(CO)CCCC(C)C1CCC2C3CCC4CC(O)CCC4(C)C3CCC12C (stereo unspecified)
inactive: dose: 100.0 mg/kg/injection, schedule: Q01DX001 (ip), vehicle: saline with Tween-80 95 % of control | dose: 200.0 mg/kg/injection, schedule: Q01DX001 (ip), vehicle: saline with Tween-80 87 % of control | dose: 400.0 mg/kg/injection, schedule: Q01DX001 (ip), vehicle: saline with Tween-80 90 % of control

CC(=O)OC1CCCCC1NC(=O)NCCCl (stereo unspecified)
inactive: dose: 12.5 mg/kg/injection, schedule: Q04DX002 (ip), vehicle: Klucel (hydroxypropylcellulose) (HPC) 87 % of control | dose: 25.0 mg/kg/injection, schedule: Q04DX002 (ip), vehicle: Klucel (hydroxypropylcellulose) (HPC) 93 % of control | [12] 101 % of control | [13] 91 % of control | [14] 103 % of control | dose: 400.0 mg/kg/injection, schedule: Q04DX002 (ip), vehicle: Klucel (hydroxypropylcellulose) (HPC) 106 % of control and 95 % of control

Cc1cc(C)c(NC(=S)NC(=O)c2ccccc2)cc1C
inactive: dose: 100.0 mg/kg/injection, schedule: Q04DX002 (ip), vehicle: gum acacia 88 % of control | dose: 200.0 mg/kg/injection, schedule: Q04DX002 (ip), vehicle: gum acacia 100 % of control | dose: 400.0 mg/kg/injection, schedule: Q04DX002 (ip), vehicle: gum acacia 96 % of control

Cc1cc(C)c2c(c1)C/C2=N/N=C1/Cc2cc(C)cc(C)c21
inactive: [12] 120 % of control | [13] 100 % of control | [14] 92 % of control

O=C1NC(=O)N(c2ccc(Cl)cc2)C1=O
inactive: [1] 111 % of control | [2] 90 % of control
